Experimental data: publication PMC3280264 (PLoS ONE, 2012)
Marks after values point to notes of the source that are not given here.

How the values were obtained:
[1] = target: Human SGLT2 (Homo sapiens, UniProt P31639); experiment: cell-based
Protocol: (§1) Sodium-dependent Glucose Uptake in Chinese Hamster Ovary (CHO) Cells Expressing SGLT1 and SGLT2 Co-transporters Parental CHO-K (CHOK) cells (commonly used mammalian cells for gene overexpression studies) expressing human or mouse SGLT1 and SGLT2 were utilized in this study. Cells were seeded into 96-well plates. Cells were then washed one time with 0.15 ml assay buffer (137 mM NaCl, 5 mM KCl, 1 mM CaCl2, 1 mM MgCl2, 50 mM HEPES, pH 7.4) at 37°C. […] Then, 5 µl of 6 mM alpha-methyl-D-glucopyranoside (AMG, a selective SGLT1/2 substrate)/^14C-AMG (0.07 µCi) was added to the cells and incubated at 37°C for 2 hours. Next, the cells were washed 3 times with 0.15 ml ice-cold phosphate-buffered saline (PBS). After the final wash was aspirated, 50 µl of microscint 20 (Packard, Meriden, Connecticut, USA) was added. The plate was counted by TopCount (Packard, Meriden, Connecticut, USA).
(§2) Statistical analysis was performed using the program Prism (Graphpad, Monrovia, California, USA). Differences between groups were evaluated using 1-way […] with Dunnett's multiple comparison test or student's t-test (unpaired), as appropriate. Probabilities less than 5% (P<0.05) were considered to be statistically significant. […] All data are presented as mean ± standard error.

[2] = target: Mouse SGLT2 (Mus musculus, UniProt Q923I7); experiment: cell-based
Mouse SGLT2, sequence (Q923I7 whole entry): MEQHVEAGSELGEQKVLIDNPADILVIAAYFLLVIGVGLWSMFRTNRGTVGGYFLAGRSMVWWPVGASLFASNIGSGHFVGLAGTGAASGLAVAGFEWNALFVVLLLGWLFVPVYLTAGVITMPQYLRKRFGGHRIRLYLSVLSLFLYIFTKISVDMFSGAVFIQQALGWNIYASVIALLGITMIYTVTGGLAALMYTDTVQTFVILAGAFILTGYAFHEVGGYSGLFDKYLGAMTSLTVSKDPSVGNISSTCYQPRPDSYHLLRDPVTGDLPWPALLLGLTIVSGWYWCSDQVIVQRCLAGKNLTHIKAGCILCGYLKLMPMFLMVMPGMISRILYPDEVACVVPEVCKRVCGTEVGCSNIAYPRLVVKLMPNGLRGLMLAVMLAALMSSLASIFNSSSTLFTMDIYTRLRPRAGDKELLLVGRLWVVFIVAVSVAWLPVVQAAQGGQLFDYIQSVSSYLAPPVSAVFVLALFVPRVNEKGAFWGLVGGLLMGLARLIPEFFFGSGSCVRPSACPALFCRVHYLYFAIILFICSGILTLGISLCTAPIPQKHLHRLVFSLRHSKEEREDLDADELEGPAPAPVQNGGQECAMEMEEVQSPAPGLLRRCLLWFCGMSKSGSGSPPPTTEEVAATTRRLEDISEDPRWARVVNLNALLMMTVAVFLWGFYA
Protocol: as §1, §2

[3] = tested on: ZF rats; experiment: 3-week treatment of ZF rats (body weight, UGE, calorimetry); assay type: in vivo; conditions: ZF rat, 3 mg/kg, 3 weeks
Description: (§3) Four rodent models were used in these experiments: (1) male C57BL/6J mice fed with a high-fat diet (D-12492 with 60 kcal% fat, Research Diets, Inc, New Jersey, USA) (diet-induced obese, insulin resistantmice [DIO]); (2) male C57BL/ksj-db/db hyperglycemic mice; (3) male Zucker fatty (ZF) obese, insulin resistant rats; and (4) male ZDF obese, hyperglycemic rats. All animals were housed according to standard procedures following a protocol approved by the IACUC in Drug Discovery at Johnson & Johnson Pharmaceutical Research & Development, LLC.
(§4) Body weight, food intake, and BG levels were monitored weekly. UGE and indirect calorimetry were conducted in the fourth week of treatment during the compound treatment. […] Body weight, food intake, and BG were measured weekly during the 19-day treatment period. UGE, body fat, and indirect calorimetric studies were conducted at the end of this study.

[4] = tested on: db/db mice; experiment: Single-dose blood glucose lowering in db/db mice; assay type: in vivo, mouse; conditions: for reduction of BG levels compared with vehicle-treated mice: 1 hour after treatment; for BG level: 6 hours, vehicle 479±3.9
Description: as §3
(§5) BG levels were monitored at 0, 0.5, 1, 3, 6, and 24 hours after dosing. […] BG levels were monitored weekly, and HbA1c, plasma glucose, and insulin levels were determined at the end of the 4-week treatment. An oral glucose tolerance test (OGTT) ([…] of body weight, given by gavage) was conducted in ZDF rats after 4 weeks of treatment. Blood was sampled at 0, 30, 60, and 120 minutes after glucose challenge from the tail vein for measurement of BG levels using a glucometer (One Touch Ultra, LifeScan, Milpitas, California, USA) and plasma insulin using ELISA method (ALPCO, Salem, New Hampshire, USA).

[5] = tested on: DIO mice; experiment: 4-week treatment of DIO mice (body weight, UGE, calorimetry); assay type: in vivo; conditions: DIO mouse, 30 mg/kg, 4 weeks
Description: as §3, §4

[6] = target: T1, Rat SGLT1 (Rattus norvegicus, UniProt P53790); experiment: 14C-AMG uptake in CHOK cells expressing rat SGLT1; assay type: cell-based; conditions: mean of 2 experiments
T1 construct: expressed in transfected cells; host or cells: CHO-K (CHOK) cells
T1 sequence (P53790 1-665): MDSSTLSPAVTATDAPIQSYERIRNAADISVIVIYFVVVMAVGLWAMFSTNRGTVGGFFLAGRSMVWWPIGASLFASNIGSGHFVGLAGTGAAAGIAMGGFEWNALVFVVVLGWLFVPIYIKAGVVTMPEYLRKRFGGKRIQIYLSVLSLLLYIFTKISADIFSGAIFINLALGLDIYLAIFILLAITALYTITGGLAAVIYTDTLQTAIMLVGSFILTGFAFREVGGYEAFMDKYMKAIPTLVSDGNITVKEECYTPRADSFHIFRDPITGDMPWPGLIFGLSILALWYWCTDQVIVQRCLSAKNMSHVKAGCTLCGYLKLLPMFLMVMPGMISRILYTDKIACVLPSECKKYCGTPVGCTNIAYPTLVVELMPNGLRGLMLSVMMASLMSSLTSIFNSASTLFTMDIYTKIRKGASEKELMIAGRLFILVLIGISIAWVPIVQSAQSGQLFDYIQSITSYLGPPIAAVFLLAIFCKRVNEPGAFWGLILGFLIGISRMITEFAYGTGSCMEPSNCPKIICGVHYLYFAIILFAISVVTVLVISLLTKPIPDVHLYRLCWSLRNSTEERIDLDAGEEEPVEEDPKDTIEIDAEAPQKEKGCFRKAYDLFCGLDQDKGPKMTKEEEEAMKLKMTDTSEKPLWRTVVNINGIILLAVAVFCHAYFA
Protocol: Cells were seeded into 96-well plates.
All data are presented as mean ± standard error.

[7] = tested on: ZDF rats; experiment: 4-week treatment of ZDF rats (glycemic control, OGTT); assay type: in vivo, rat; conditions: 4 weeks; for OGTT Ratio of insulin AUC/glucose AUC / Insulin / HbA1c / OGTT Plasma insulin (AUC0–120 min) / Fed plasma glucose / OGTT Blood glucose (AUC0–120 min): ZDF rats; for OGTT Ratio of insulin AUC/glucose AUC: vehicle 0.003±0.000; for Insulin: vehicle 5.2±0.4; for HbA1c: vehicle 11.5±0.3; for OGTT Plasma insulin (AUC0–120 min): vehicle 221±13; for Fed plasma glucose: vehicle 598.2±18.0; for OGTT Blood glucose (AUC0–120 min): vehicle 70,704±1289
Description: as §3, §5

[8] = target: Rat SGLT2 (Rattus norvegicus, UniProt P53792); experiment: cell-based
Rat SGLT2, sequence (P53792 whole entry): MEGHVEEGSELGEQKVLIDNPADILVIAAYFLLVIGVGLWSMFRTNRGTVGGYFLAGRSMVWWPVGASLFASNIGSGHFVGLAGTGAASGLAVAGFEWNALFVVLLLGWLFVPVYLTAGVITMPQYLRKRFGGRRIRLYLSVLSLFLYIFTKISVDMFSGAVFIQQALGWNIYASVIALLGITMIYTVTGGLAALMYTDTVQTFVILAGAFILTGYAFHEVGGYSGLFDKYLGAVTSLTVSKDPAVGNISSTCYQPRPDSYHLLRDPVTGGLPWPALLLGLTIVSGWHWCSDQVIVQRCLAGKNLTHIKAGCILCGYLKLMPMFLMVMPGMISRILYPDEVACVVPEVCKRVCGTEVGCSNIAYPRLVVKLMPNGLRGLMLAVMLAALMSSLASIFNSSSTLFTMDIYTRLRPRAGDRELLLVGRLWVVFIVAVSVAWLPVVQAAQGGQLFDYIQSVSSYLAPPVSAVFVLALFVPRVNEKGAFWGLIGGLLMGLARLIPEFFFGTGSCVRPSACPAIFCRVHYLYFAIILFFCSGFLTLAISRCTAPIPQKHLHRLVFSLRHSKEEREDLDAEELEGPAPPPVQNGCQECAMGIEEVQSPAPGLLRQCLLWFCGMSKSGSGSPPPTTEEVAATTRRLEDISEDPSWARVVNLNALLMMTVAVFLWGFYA

Human SGLT2, sequence (P31639 whole entry): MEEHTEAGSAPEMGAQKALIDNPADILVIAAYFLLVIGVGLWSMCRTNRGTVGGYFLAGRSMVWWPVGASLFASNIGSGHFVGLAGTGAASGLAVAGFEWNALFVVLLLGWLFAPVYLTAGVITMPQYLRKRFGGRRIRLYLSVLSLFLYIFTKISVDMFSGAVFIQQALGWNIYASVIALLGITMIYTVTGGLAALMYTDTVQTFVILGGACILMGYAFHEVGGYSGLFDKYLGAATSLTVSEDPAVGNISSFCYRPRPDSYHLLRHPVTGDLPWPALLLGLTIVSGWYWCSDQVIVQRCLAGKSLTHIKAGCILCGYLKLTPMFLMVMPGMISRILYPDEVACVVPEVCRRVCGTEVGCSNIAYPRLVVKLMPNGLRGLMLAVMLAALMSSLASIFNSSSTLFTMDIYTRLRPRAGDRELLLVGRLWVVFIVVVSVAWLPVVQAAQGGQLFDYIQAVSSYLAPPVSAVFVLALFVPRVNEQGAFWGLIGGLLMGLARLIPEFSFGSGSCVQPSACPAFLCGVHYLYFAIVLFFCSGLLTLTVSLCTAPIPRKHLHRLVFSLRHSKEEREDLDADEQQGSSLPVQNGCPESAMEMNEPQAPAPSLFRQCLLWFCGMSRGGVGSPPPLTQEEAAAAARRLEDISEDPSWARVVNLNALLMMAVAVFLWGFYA

SMILES: Cc1ccc([C@@H]2O[C@H](CO)[C@@H](O)[C@H](O)[C@H]2O)cc1Cc1ccc(-c2ccc(F)cc2)s1 [canagliflozin, Canagliflozin]
- IC50 [1]: 4.4 ± 1.2 nM
- IC50 [2]: 2 nM
- Feeding efficiency index (body weight gain/food intake) ([3]; vehicle 0.30±0.01): 0.25±0.01
- RER ([3]; vehicle 1.10±0.01): 1.06±0.01 ^b
- UGE ([3]; vehicle 1.8±1.1): 29.10±3.5 ^b mg/4 h
- Epididymal fat weight ([3]; vehicle 10.8±0.3): 9.5±0.3 ^b g
- Liver weight ([3]; vehicle 28.5±0.8): 25.0±1.4 ^b g
- Fed BG ([3]; vehicle 149.6±22.9): 118.9±4.3 ^b mg/dl
- Body weight ([3]; vehicle 437.9±11.5): 408.1±7.7 ^b g
- Total food intake ([3]; vehicle 645.3±21.2): 647.9 ± 18.9 g
- Oxygen consumption (VO2) ([3]; vehicle 1560±28): 26.37 ± 0.55 mL/min/kg
- reduction of BG levels compared with vehicle-treated mice ([4]; single dose 1 mg/kg): 22%
- BG level ([4]; single dose 1 mg/kg): 208 ± 9.6 mg/dL
- reduction of BG levels compared with vehicle-treated mice ([4]; single dose 10 mg/kg): 36%
- BG level ([4]; single dose 10 mg/kg): 118 ± 9.0 mg/dL
- RER ([5]; vehicle 0.79±0.01): 0.77±0.01 ^b
- UGE ([5]; vehicle 2.4±0.6): 26.1±5.2 ^b mg/4 h
- Body weight ([5]; vehicle 53.2±0.6): 49.6±1.0 ^b g
- Fed BG ([5]; vehicle 199±16): 105±13 ^b mg/dl
- Oxygen consumption (VO2) ([5]; vehicle 2364±29): 40.32 ± 1.82 mL/min/kg
- IC50 [6]: 571 nM
- OGTT Ratio of insulin AUC/glucose AUC ([7]; 3 mg/kg): 0.013±0.002 ^a (ng/ml•min)/mg/dl•min)
- Insulin ([7]; 3 mg/kg): 7.9±0.1 ^a ng/ml
- HbA1c ([7]; 3 mg/kg): 7.1±0.3 ^a %
- OGTT Plasma insulin (AUC0–120 min) ([7]; 3 mg/kg): 342±27 ^a ng/ml•min
- Fed plasma glucose ([7]; 3 mg/kg): 248.0±13.5 ^a mg/dl
- OGTT Blood glucose (AUC0–120 min) ([7]; 3 mg/kg): 27,883±1806 ^a mg/dl•min
- OGTT Ratio of insulin AUC/glucose AUC ([7]; 10 mg/kg): 0.017±0.002 ^a (ng/ml•min)/mg/dl•min)
- Insulin ([7]; 10 mg/kg): 7.9±0.1 ^a ng/ml
- HbA1c ([7]; 10 mg/kg): 5.6±0.3 ^a %
- OGTT Plasma insulin (AUC0–120 min) ([7]; 10 mg/kg): 403±33 ^a ng/ml•min
- Fed plasma glucose ([7]; 10 mg/kg): 182.0±7.1 ^a mg/dl
- OGTT Blood glucose (AUC0–120 min) ([7]; 10 mg/kg): 23,989±1881 ^a mg/dl•min
- OGTT Ratio of insulin AUC/glucose AUC ([7]; 30 mg/kg): 0.018±0.002 ^a (ng/ml•min)/mg/dl•min)
- Insulin ([7]; 30 mg/kg): 7.8±0.1 ^a ng/ml
- HbA1c ([7]; 30 mg/kg): 5.5±0.3 ^a %
- OGTT Plasma insulin (AUC0–120 min) ([7]; 30 mg/kg): 288 ± 34 ng·min/mL
- Fed plasma glucose ([7]; 30 mg/kg): 199.9±14.7 ^a mg/dl
- OGTT Blood glucose (AUC0–120 min) ([7]; 30 mg/kg): 16,549±822 ^a mg/dl•min
- increase in the insulin/glucose ratio following an OGTT, relative to vehicle-treated animals ([7]; ZDF rats, 3, 10 or 30 mg/kg): 4-to-6 fold
- IC50 [8]: 3.7 nM
